# Results from patent US20210260022A1, “SYNERGY FOR INCREASING ENERGY EXPENDITURE AND INSULIN SENSITIVITY” (The Board of Supervisors of Louisiana State University and …, priority 2018, published 2021).
# Key:
# human adipocytes [1] = experiment: Acute agonist-stimulated lipolysis (glycerol release) in untreated and NRBC-treated adipocytes; assay type: cell-based; settings: 4.5 hour agonist exposure
# Experimental: Acute agonist-stimulated glycerol release in untreated and NRBC-treated adipocytes. After 7d treatment with vehicle or NRBC, cells were exposed to receptor agonists dissolved in KRB with 1% BSA for 4.5 hours. Supernatants were removed for measurement of glycerol.
# On the day of the acute lipolysis assay, cell cultures were rinsed with KRB to remove serum and exposed to the individual receptor agonists in KRB. Lipolysis was measured as glycerol released into the cell supernatant over 4.5 hour of agonist exposure. Non-hydrolyzable cAMP was also evaluated in each experiment as a positive control to measure the maximum capacity for PKA-stimulated lipolysis.
# human adipocytes [2] = experiment: qRT-PCR in human adipocytes (hADSC) treated two days with naringenin and inhibitors; assay type: cell-based; settings: 2d treatment
# Experimental: Human white adipocytes were treated for 2d with naringenin in the presence of inhibitors of metabolic pathways to determine the mechanism of action for stimulating fat oxidation and thermogenic energy expenditure.
# Naringenin increased UCP1 and CPT1β mRNA induction compared to control (p<0.001). PPARα and PPARγ inhibition reduced UCP1 and CPT1β mRNA expression (p<0.001). Each experiment was conducted with three biological replicates and four technical replicates.
# The whole orange extract was dissolved in DMSO at 15 mM (based on 28% naringenin content) and added to cells at a dilution of 1:500 to achieve a final concentration of 30 μM. The inhibitors added to the naringenin-treated cells included: peroxisome proliferator-activated receptor alpha (PPARα) antagonist GW6471 and peroxisome proliferator-activated receptor gamma (PPARγ) antagonist GW9662 (Cayman Chemical, Ann Arbor, Mich.) at 10 μM concentration, protein kinase A (PKA) inhibitor H89 (Millipore Sigma, Burlington, Mass.) at 20 μM concentration, and protein kinase G (PKG) inhibitor […] (Biolog Life Science Institute, AXXORA, LLC, Farmingdale, N.Y.) at 50 μM concentration. GW6471 and GW9662 were dissolved in DMSO at 1000×, H89 was dissolved in PBS at 500×, and Rp-8-pCPT-cGMPS was dissolved in PBS at 100× prior to dilution in cell culture medium. Following a two-day treatment, the cells were harvested with Trizol reagent. RNeasy Mini Kit (Qiagen, Germantown, Md.) was used to isolate total RNA following manufacturer's protocol. The expression of UCP1, CPT1β, and GLUT4 was quantified with one-step reverse transcriptase PCR using the reverse PCR primer to prime cDNA synthesis as previously described.^6
# human adipocytes [3] = experiment: UCP1 mRNA in human adipocytes, naringenin combined with other botanical compounds; assay type: cell-based; settings: 5 μM naringenin in combination
# Experimental: Human adipocytes were treated with 5 μM naringenin or with naringenin in combination with other botanical compounds to evaluate synergy in inducing UCP1 mRNA expression. A range of other botanical compounds such as […]
# mice [4] = settings: 100 mg/kg injected daily; cited from earlier work
# human adipocytes [5] = experiment: mRNA expression (Taqman RT-PCR) in differentiated human adipocytes after 7 day treatment; assay type: cell-based; settings: for UCP1 and GLUT4 expression, carotenoid alone: 2 μM carotenoid; for UCP1 and GLUT4 expression, carotenoid alone / UCP1 and GLUT4 expression, carotenoid in combination with naringenin extract: seven days; for UCP1 and GLUT4 expression, carotenoid in combination with naringenin extract: 8 μM naringenin extract + 2 μM carotenoid; for gene expression, carotenoid in combination with NR: compared with BC + NR
# [6] = 4 mg/day, six months, obese children; cited from earlier work
# mice [7] = settings: 150 mg/kg/day dietary; cited from earlier work
compound,measurement,setting,value
CC[C@H](C)[C@@H]1NC(=O)[C@H](CCCNC(=N)N)NC(=O)[C@H](CC(=O)O)NC(=O)[C@H](CCSC)NC(=O)[C@H](CCCNC(=N)N)NC(=O)CNC(=O)CNC(=O)[C@H](Cc2ccccc2)NC(=O)[C@@H](NC(=O)[C@H](CO)NC(=O)[C@H](CO)NC(=O)[C@H](CCCNC(=N)N)NC(=O)[C@H](CCCNC(=N)N)NC(=O)[C@H](CC(C)C)NC(=O)[C@@H](N)CO)CSSC[C@@H](C(=O)N[C@@H](CC(N)=O)C(=O)N[C@@H](CO)C(=O)N[C@@H](Cc2ccccc2)C(=O)N[C@@H](CCCNC(=N)N)C(=O)N[C@@H](Cc2ccc(O)cc2)C(=O)O)NC(=O)CNC(=O)[C@H](CC(C)C)NC(=O)CNC(=O)[C@H](CO)NC(=O)[C@H](CCC(N)=O)NC(=O)[C@H](C)NC(=O)CNC1=O [ANP],lipolysis stimulated by the agonist (glycerol release),human adipocytes [1],highest levels of lipolysis
"Nc1nc2c(nc(Sc3ccc(Cl)cc3)n2[C@@H]2O[C@@H]3CO[P@@](=O)(S)O[C@H]3[C@H]2O)c(=O)[nH]1 [Biolog C013, reference compound]",Induction of UCP1 and CPT-1b by naringenin in the presence of the inhibitor,human adipocytes [2],unaffected
Nc1ncnc2c1ncn2[C@@H]1O[C@@H]2COP(=O)(O)O[C@H]2[C@H]1O [Cyclic AMP],lipolysis stimulated by the agonist (glycerol release),human adipocytes [1],greater lipolysis activity than any individual receptor ligand
CC12CCC(CC1)C(C)(C)O2 [Ecalyptol],synergy with naringenin in increasing UCP1 mRNA levels,human adipocytes [3],did not synergize
"CCC(=O)NC[C@H](Cc1ccc(OCCc2nc(-c3ccccc3)oc2C)cc1)N/C(C)=C\C(=O)c1ccc(C(F)(F)F)cc1 [GW6471, reference compound]",Induction of UCP1 and CPT-1b by naringenin in the presence of the inhibitor,human adipocytes [2],abolished
"O=C(Nc1ccccc1)c1cc([N+](=O)[O-])ccc1Cl [GW9661, reference compound]",Induction of UCP1 and CPT-1b by naringenin in the presence of the inhibitor,human adipocytes [2],abolished
"O=S(=O)(NCCNC/C=C/c1ccc(Br)cc1)c1cccc2cnccc12 [H89, reference compound]",Induction of UCP1 and CPT-1b by naringenin in the presence of the inhibitor,human adipocytes [2],partially reduced
"CCCCCCCC/C=C\CCCCCCCC(=O)NCCO [OEA, oleoylethanolamide]",synergy with naringenin in increasing UCP1 mRNA levels,human adipocytes [3],did not synergize
"CC1=C(/C=C/C(C)=C/C=C/C(C)=C/C(=O)O)C(C)(C)CCC1 [atRA, All-trans retinoic acid]",body weight and adiposity,mice [4],reduction in body weight and adiposity
"CC1=C(/C=C/C(C)=C/C=C/C(C)=C/C=C/C=C(C)/C=C/C=C(C)/C=C/C2=C(C)CCCC2(C)C)C(C)(C)CCC1 [beta carotene, β-Carotene]","UCP1 and GLUT4 expression, carotenoid alone",human adipocytes [5],no effect
same,"RNA expression of uncoupling protein-1, adipose tissue glyceride lipase and adiponectin",human adipocytes [5]; beta carotene at 1 micromolar,increase RNA expression
same,"BMI z-score, subcutaneous and visceral adipose tissue, waist circumference",[6],"reduction in BMI z-score, subcutaneous adipose tissue, visceral adipose tissue, waist circumference"
same,insulin sensitivity,[6],improved insulin sensitivity
same,"adiposity, food intake, bodyweight",mice [7],reduced adiposity without altering food intake or bodyweight
CC(CCc1ccc(O)cc1)NCCc1ccc(O)c(O)c1 (stereo not shown) [dobutamine],lipolysis stimulated by the agonist (glycerol release),human adipocytes [1],comparable to isoproterenol
"CC1=C[C@H](O)CC(C)(C)[C@H]1/C=C/C(C)=C/C=C/C(C)=C/C=C/C=C(C)/C=C/C=C(C)/C=C/C1=C(C)C[C@@H](O)CC1(C)C [lutein, Lutein]","UCP1 and GLUT4 expression, carotenoid alone",human adipocytes [5],no effect
same,"UCP1 and GLUT4 expression, carotenoid in combination with naringenin extract",human adipocytes [5],act synergistically
same,"gene expression, carotenoid in combination with NR",human adipocytes [5],synergistic effect
"CC(C)=CCC/C(C)=C/C=C/C(C)=C/C=C/C(C)=C/C=C/C=C(C)/C=C/C=C(C)/C=C/C=C(\C)CCC=C(C)C [lycopene, Lycopene]","UCP1 and GLUT4 expression, carotenoid alone",human adipocytes [5],no effect
same,"UCP1 and GLUT4 expression, carotenoid in combination with naringenin extract",human adipocytes [5],act synergistically
same,"gene expression, carotenoid in combination with NR",human adipocytes [5],synergistic effect
"PTH: parathyroid hormone (1-34) (SVSEIQLMHNLGKHLNSMERVEWLRKKLQDVHNF; Parathyroid hormone; UniProt P01270 32-65, looked up, fragment)",lipolysis stimulated by the agonist (glycerol release),human adipocytes [1],highest levels of lipolysis
